pEC50, pIC50: −log10 of the molar value.
What was measured:
H9 [1] = assay: Inhibitory concentration required to inhibit uninfected H9 cell growth by 50%; type: functional, cell-based; conditions: Homo sapiens
[2] = Therapeutic index (IC50/EC50) of compound was determined in acutely infected H9 cell; type: cell-based; conditions: human, acutely infected H9 cells; read-out: TI
H9 [3] = assay: Inhibitory concentration against HIV-1 replication in acutely infected H9 lymphocytes; type: functional, cell-based; conditions: Homo sapiens

| Structure (SMILES) | pIC50 (H9 [1]) | selectivity ratio [2] | pEC50 (H9 [3]) |
| --- | --- | --- | --- |
| CC1(C)Oc2ccc3cc(CBr)c(=O)oc3c2[C@@H](OC(=O)C23CCC(C)(C(=O)O2)C3(C)C)[C@H]1OC(=O)C12CCC(C)(C(=O)O1)C2(C)C (stereo partly drawn) | 5.47 | 40 | 7.07 |
| CC1(C)Oc2ccc3cc(CN)c(=O)oc3c2[C@@H](OC(=O)C23CCC(C)(C(=O)O2)C3(C)C)[C@H]1OC(=O)C12CCC(C)(C(=O)O1)C2(C)C (stereo partly drawn) | 4.48 |  | 6.41 |
| CCN(CC)Cc1cc2ccc3c(c2oc1=O)[C@@H](OC(=O)C12CCC(C)(C(=O)O1)C2(C)C)[C@@H](OC(=O)C12CCC(C)(C(=O)O1)C2(C)C)C(C)(C)O3 (stereo partly drawn) | 4.37 | 62 | 6.16 |
| CC1(C)Oc2ccc3cc(CO)c(=O)oc3c2[C@@H](OC(=O)C23CCC(C)(C(=O)O2)C3(C)C)[C@H]1OC(=O)C12CCC(C)(C(=O)O1)C2(C)C (stereo partly drawn) | 4.45 | 188000 | 9.73 |
| CC1(C)Oc2ccc3cc(C(Br)Br)c(=O)oc3c2[C@@H](OC(=O)C23CCC(C)(C(=O)O2)C3(C)C)[C@H]1OC(=O)C12CCC(C)(C(=O)O1)C2(C)C (stereo partly drawn) | 5.49 | 26900 | 9.92 |
| CC1(C)Oc2ccc3ccc(=O)oc3c2[C@@H](OC(=O)C23CCC(C)(C(=O)O2)C3(C)C)[C@H]1OC(=O)C12CCC(C)(C(=O)O1)C2(C)C (stereo partly drawn) |  | 137000 |  |
| CC(=O)OCc1cc2ccc3c(c2oc1=O)[C@@H](OC(=O)C12CCC(C)(C(=O)O1)C2(C)C)[C@@H](OC(=O)C12CCC(C)(C(=O)O1)C2(C)C)C(C)(C)O3 (stereo partly drawn) | 5.48 | 3240 | 8.99 |

— ChEMBL document CHEMBL1133931, “Anti-AIDS agents. Part 47: Synthesis and anti-HIV activity of 3-substituted 3',4'-Di-O-(S)-camphanoyl-(3'R,4'R)-(+)-cis-khellactone derivatives” (Bioorg Med Chem Lett, 2001)
